What was measured:
[1] = system: β1-containing heterotrimers of human recombinant AMPK; test: AMPK activation assay (phosphorylation of ACC1/1-120 at ser79, AlphaScreen), β1-containing heterotrimers; format: biochemical; conditions: two β1-containing heterotrimers; 100 µM ATP, room temperature, 60 minutes
Description: (§1) The compound of formula (I) was assayed in vitro to determine its EC50 against four different AMPK heterotrimers (two containing the β1 subunit and two containing the β2 subunit). AMPK activity was measured by the phosphorylation of the amino-terminal fragment of human acetyl CoA carboxylase-type 1, amino acids 1-120 (ACC1/1-120), at ser79. The fragment was expressed as a biotinylated fusion protein in E.coli. Human rAMPK genes were expressed in insect cells using baculovirus vectors or in the monkey COS7 cell expression systems. The compound was tested in triplicate at each of the following concentrations (µM): 45, 15, 5, 1.67, 0.56, 0.185, 0.06, 0.02 and 0.00685. A positive control comprising AMP (100 uM), and a negative control without enzyme, were used. The enzyme assay was conducted in a 5 µl reaction mixture containing compound of formula (I) at the indicated concentrations in 80 mM HEPES, pH7.0, 160 mM NaCl, 2.5 mM MgCl2, 1mM DTT, 0.05% Tween-20, 100 µM ATP with AMPK at 0.08 ng/µl and ACC1/1-120 at 0.004 ng/µl. […] The reaction mixture was further incubated overnight at RT and analyzed on a Perkin EImer Fusion-Alpha microplate analyzer. The AlphaScreen readout for this assay is based on an excitation with laser-stimulated visible light at 680 nm and emission at 520-620 nm.

[2] = system: β2-containing heterotrimers of human recombinant AMPK; test: AMPK activation assay (phosphorylation of ACC1/1-120 at ser79, AlphaScreen), β2-containing heterotrimers; format: biochemical; conditions: two β2-containing heterotrimers; 100 µM ATP, room temperature, 60 minutes
Description: as §1

[3] = system: high-fat diet-fed (HFD) mice; test: Fasting plasma glycemia and insulin sensitivity in high-fat diet-fed (HFD) mice; format: in vivo
Description: Six-week-old male C57BI/6 mice were fed a high-fat diet or chow diet for 3 months. Then, HFD mice were treated orally with vehicle (Control HFD) or compound of formula (I) at 60 mg/kg twice daily for 4 weeks. Chow fed mice were treated orally with vehicle alone (Control CD). At completion of this treatment period, mice were fasted for 6 hours and blood glucose levels were assessed with a blood glucosemeter from blood samples collected from the tip of the tail vein.

HFD mice [4] = test: Hepatic glucose production in HFD mice (hyperinsulinemic-euglycemic clamp); format: in vivo; conditions: for hepatic glucose production: orally 60 mg/kg twice daily for 40 days, under insulin stimulated states, p < 0.001 vs Control HFD, 60 mg/kg
Description: Six-week-old male C57BI/6 mice were fed a high-fat diet or chow diet for 3 months. Then, HFD mice were treated orally with vehicle (Control HFD) or compound of formula (I) at 60 mg/kg twice daily for 40 days. Chow fed mice were treated orally with vehicle alone (Control CD). Hepatic glucose production was assessed during a hyperinsulinemic-euglycemic clamp using a 12 mU/kg/min insulin infusion rate. Hyperinsulinemic-euglycemic clamps were performed in chronically cannulated awake free moving mice. Before the start of the clamp procedure mice were fasted for 6 hours. ^3H-glucose alone was then infused for 210 minutes to assess the basal whole body glucose turnover (= hepatic glucose output). The basal procedure started with D-[3-3H]glucose, which was infused (2µL/min, 30µCi/min/kg) for 90 minutes (time -60 to time 30 minutes). An euglycemic hyperinsulinemic 1 step insulin clamp was then performed from 30 minutes to 150 minutes, with a 12mU/kg/min insulin infusion. Glucose (16.5%) infusion rate was adjusted until steady-state blood glucose (120 mg/dL, ± 10 mg/dL) was achieved. Calculations for glucose turnover measurements were made from parameters obtained during the last 60 min of the infusions in steady-state condition, Briefly, the D-[3-3H]glucose-specific activity was calculated by dividing the D-[3-3H]glucose enrichment by the plasma glucose concentration. The whole-body glucose turnover rate was calculated by dividing the rate of D-[3-3H]glucose by the D-[3-3H]glucose plasma-specific activity. For each mouse, the mean values were calculated and averaged with values from mice of the same group.

HFD mice [5] = test: Hepatic lipids in HFD mice; format: in vivo; conditions: orally 60 mg/Kg twice daily for 40 days, to near control chow values
Description: Six-week-old male C57BI/6 mice were fed a high-fat diet or chow diet for 3 months. Then, HFD mice were treated orally with vehicle (Control HFD) or compound of formula (I) at 60 mg/Kg twice daily for 40 days. Chow fed mice were treated orally with vehicle alone (Control CD). At completion of this treatment period, mice were sacrificed and liver collected for determination of triglycerides, cholesterol and free fatty acids (FFA) content. Commercial kits were used to measure the levels of hepatic cholesterol (cholesterol RTU, Biomerieux), triglyceride (TG) (triglyceride PAP 150, Biomerieux), and fatty acid (NEFA-HR (2), Wako Chemicals) levels from liver homogenate. Results were then normalized to the weight of the sample.

HFD hamster = test: Circulating lipids (FPLC lipoprotein profile) and insulin sensitivity in HFD hamster; format: in vivo
Description: Hamsters were fed a control chow diet with normal drinking water or high fat diet with 10% fructose drinking water over 30 days. After 16 days of high-fat diet, two groups of hamsters were treated orally with either vehicle (control HFD) or Compound of formula (I) twice daily for 14 days. Hamsters fed the chow diet were also treated orally for 14 days with vehicle BID (control CD). After the treatment period, hamsters were overnight fasted, blood samples were obtained from the retroorbital plexus. Plasma was immediately isolated by centrifugation and for each group, a 400 µL pool of plasma was made from the individual plasma samples. Lipoproteins were separated by fast performance liquid chromatography (FPLC). FPLC fractions were monitored for cholesterol levels.

[6] = HFD hamsters, orally twice daily for 14 days, FPLC of pooled plasma

O=C(O)c1c[nH]c2ccc(-c3ccc(-c4c(O)cccc4O)cc3)cc12 [compound of formula (I), 5-(2',6'-dihydroxy-biphenyl-4-yl)-1H-indole-3-carboxylic acid]
EC50 [1]: < 500 nM
EC50 [2]: < 5000 nM
decrease of fasting plasma glycemia ([3]; orally 60 mg/kg twice a day): at least 17%
blood glucose ([3]; orally 60 mg/kg twice daily for 4 weeks, fasted for 6 hours, p <0.05 vs Control HFD): significantly decreased
HOMA-IR decrease (insulin sensitivity) ([3]; results not shown): 43%
decrease of hepatic glucose production (HFD mice [4]; orally 60 mg/kg twice a day, basal state): at least 34%
hepatic glucose production (HFD mice [4]): normalized
hepatic glucose production (HFD mice [4]; listed as Compound of formula (I)): blunted
liver lipids content (HFD mice [5]): reduced
HOMA-IR decrease (insulin sensitivity) (HFD hamster; HFD hamster, results not shown): 37%
HDL total cholesterol levels (HFD hamster; [6]): increased
LDL total cholesterol levels (HFD hamster; [6]): reduced
VLDL total cholesterol levels (HFD hamster; [6]): reduced

Reference: patent publication EP2769974A1, “Novel AMPK activator” (Debiopharm S.A., priority 2013, dated 2014)
